Data reported in US10660333B2, “Substituted 2-heterocyclylimidazolylcarboxamides as pesticides” (BAYER CROPSCIENCE AKTIENGESELLSCHAFT, priority 2016, dated 2020).
Like-named read-outs stand apart in the source and are kept apart here.

Columns and labels:
[1] = log P by HPLC on reversed-phase (C18) columns, OECD Guideline 117; format: physicochemical
Myzus persicae [2] = experiment: Myzus persicae - oral test; format: in vivo; conditions: for pest or weed control at 4 ppm: Myzus persicae, 120 h, read-out: efficacy (aphids killed)
Experimental: To produce a suitable active ingredient formulation, 1 part by weight of active ingredient is dissolved with the specified parts by weight of solvent and made up to the desired concentration with water.
50 μl of the active ingredient formulation are transferred into microtitre plates and made up to a final volume of 200 μl with 150 μl of IPL41 insect medium (33%+15% sugar). Subsequently, the plates are sealed with parafilm, which a mixed population of green peach aphids (Myzus persicae) within a second microtitre plate is able to puncture and imbibe the solution.
(§1) After 5 days, the efficacy in % is determined. 100% means that all the aphids have been killed; 0% means that no aphids have been killed.

Myzus persicae [3] = experiment: Myzus persicae - spray test; format: in vivo; conditions: for pest or weed control at 500 g/ha: Myzus persicae, foliar, 120 h, read-out: efficacy (aphids killed)
Experimental: Myzus persicae—Spray Test
To produce a suitable active ingredient formulation, 1 part by weight of active ingredient is dissolved with the specified parts by weight of solvent and made up to the desired concentration with water containing an emulsifier concentration of 1000 ppm. To produce further test concentrations, the formulation is diluted with emulsifier-containing water.
Discs of Chinese cabbage leaves (Brassica pekinensis) infested by all stages of the green peach aphid (Myzus persicae) are sprayed with an active ingredient formulation of the desired concentration.
as §1

[4] = HPLC RP C18, acidic range pH 2.7, 0.1% formic acid/acetonitrile
[5] = HPLC RP C18, neutral range pH 7.8, ammonium hydrogencarbonate/acetonitrile
[6] = 500 g/ha, Chinese cabbage leaf discs, after 5 days
[7] = reversed-phase (C18) HPLC column, HPLC RP C18, acidic range pH 2.7, 0.1% formic acid/acetonitrile, read-out: logP[a]
[8] = reversed-phase (C18) HPLC column, HPLC RP C18, neutral range pH 7.8, ammonium hydrogencarbonate/acetonitrile, read-out: logP[n]

| SMILES | logP[a] [1, 4] | logP[n] [1, 5] | efficacy (aphids killed) (Myzus persicae [2]; 4 ppm, oral, after 5 days) | efficacy (aphids killed) (Myzus persicae [3]; [6]) | also measured |
| --- | --- | --- | --- | --- | --- |
| CN(C(=O)c1cnc(C2CC(c3c(Cl)cc(C(F)(F)F)cc3Cl)=NO2)n1C)c1cccnc1 (stereo not drawn) [Example I-1-34] | 2.66 | 2.75 | 100% | 90% | – |
| CN(C(=O)c1cnc(C=O)n1C)c1cccnc1 [XIII-1-1, 2-Formyl-N,1-dimethyl-N-(pyridin-3-yl)-1H-imidazole-5-carboxamide] | – | – | – | – | chromatographic logP [1, 7]: 0.43; chromatographic logP [1, 8]: 0.6 |
| CN(C(=O)c1cnc(C2=NOC(C3CCCC3)C2)n1C)c1cccnc1 (stereo not drawn) [Example I-1-38] | 2.09 | 2.21 | – | – | – |
| CN(C(=O)c1cnc(C2CC(c3ccc(C(F)(C(F)(F)F)C(F)(F)F)cc3)=NO2)n1C)c1cccnc1 (stereo not drawn) [Example I-1-35] | 3.01 | 3.08 | 90% | 100% | – |
| CN(C(=O)c1cnc(C2=NOC(c3ccccn3)C2)n1C)c1cccnc1 (stereo not drawn) [Example I-1-42] | 1.09 | 1.46 | – | – | – |
| N#Cc1cccc(C=NO)c1 [IX-19, 3-(Hydroxyimino)methylbenzonitrile] | – | – | – | – | chromatographic logP ([1]; HPLC RP C18, acidic range pH 2.7, 0.1% formic acid/acetonitrile, read-out: logP[a]): 1.2 |
| CC1=NOC(C)(c2ncc(C(=O)N(C)c3cccnc3)n2C)C1 (stereo not drawn) [Example I-1-31] | 0.53 | 0.96 | 90% | 90% | – |
| CN(C(=O)c1cnc(C2=NOC(c3ccc(C(F)(F)F)cc3)C2)n1C)c1cccnc1 (stereo not drawn) [Example I-1-41] | 2.49 | 2.60 | – | – | – |
| CN(C(=O)c1cnc(C2CC(c3cccnc3)=NO2)n1C)c1cccnc1 (stereo not drawn) [Example I-1-27] | 0.64 | 1.09 | 100% | 90% | – |
| CN(C(=O)c1cnc(C2CC(c3ccc(Cl)cc3)=NO2)n1C)c1cccnc1 (stereo not drawn) [Example I-1-11] | 1.97 | 2.12 | 100% | 100% | – |
| CN1CCN=C1c1ncc(C(=O)N(C)c2cccnc2)n1C [Example I-1-46] | – | 0.74 | – | – | – |
| CN(C(=O)c1cnc(C2CC(c3cccc(Cl)c3Cl)=NO2)n1C)c1cccnc1 (stereo not drawn) [Example I-1-12] | 2.07 | 2.25 | 100% | 100% | – |
| COc1ccc(C2=NOC(c3ncc(C(=O)N(C)c4cccnc4)n3C)C2)cc1 (stereo not drawn) [Example I-1-25] | 1.46 | 1.74 | 100% | – | – |
| CN(C(=O)c1cnc(C2=NCCN2)n1C)c1cccnc1 [Example I-1-45, N,1-Dimethyl-N-(pyridin-3-yl)-4′,5′-dihydro-1H,1′H-2,2′-biimidazole-5-carboxamide] | – | – | – | – | chromatographic logP [1, 8]: 0.54 |
| CN(C(=O)c1cnc(C2=NOC(c3ccncc3)C2)n1C)c1cccnc1 (stereo not drawn) [Example I-1-44] | 0.45 | 1.34 | – | – | – |
| CN(C(=O)c1cnc(C2CC(c3cc(Cl)cc(Cl)c3)=NO2)n1C)c1cccnc1 (stereo not drawn) [Example I-1-17] | 2.39 | 2.61 | 100% | 100% | – |
| CN(C(=O)c1cnc(C=NO)n1C)c1cccnc1 [XVIII-1-1, 2-[(Hydroxyimino)methyl]-N,1-dimethyl-N-(pyridin-3-yl)-1H-imidazole-5-carboxamide] | – | – | – | – | chromatographic logP [1, 8]: 0.51 |

| SMILES | logP[a] [1, 4] | logP[n] [1, 5] | efficacy (aphids killed) (Myzus persicae [2]; 4 ppm, oral, after 5 days) | efficacy (aphids killed) (Myzus persicae [3]; [6]) | also measured |
| --- | --- | --- | --- | --- | --- |
| CN(C(=O)c1cnc(C2=NOC(c3cccnc3)C2)n1C)c1cccnc1 (stereo not drawn) [Example I-1-43] | 0.56 | 1.35 | – | – | – |
| CN(C(=O)c1cnc(C2CC(c3cccc(Cl)c3)=NO2)n1C)c1cccnc1 (stereo not drawn) [Example I-1-10] | 1.88 | 2.10 | 100% | 100% | – |
| CCOC(=O)C1=NOC(c2ncc(C(=O)N(C)c3cccnc3)n2C)C1 (stereo not drawn) [Example I-1-5, Ethyl 5-{1-methyl-5-[methyl(pyridin-3-yl)carbamoyl]-1H-imidazol-2-yl}-4,5-dihydro-1,2-oxazole-3-carboxylate] | – | – | – | – | chromatographic logP [1, 7]: 1.04; chromatographic logP [1, 8]: 1.32; pest or weed control at 4 ppm (Myzus persicae [2]; 4 ppm, oral, after 5 days): 100%; pest or weed control at 500 g/ha (Myzus persicae [3]; [6]): 100% |
| CN(C(=O)c1cnc(C2CC(c3ccc(Cl)cc3Cl)=NO2)n1C)c1cccnc1 (stereo not drawn) [Example I-1-13] | 2.23 | 2.41 | 100% | 100% | – |
| Cc1ccc(C2=NOC(c3ncc(C(=O)N(C)c4cccnc4)n3C)C2)cc1 (stereo not drawn) [Example I-1-21] | 1.75 | 1.95 | 100% | 100% | – |
| CN(C(=O)c1cnc(C#N)n1C)c1cccnc1 [XXIII-1-1, 2-Cyano-N,1-dimethyl-N-(pyridin-3-yl)-1H-imidazole-5-carboxamide] | – | – | – | – | chromatographic logP [1, 7]: 0.63; chromatographic logP [1, 8]: 0.85 |
| CN(C(=O)c1cnc(C2=CC(=O)OC2)n1C)c1cccnc1 [Example I-1-47, N,1-Dimethyl-2-(5-oxo-2,5-dihydrofuran-3-yl)-N-(pyridin-3-yl)-1H-imidazole-5-carboxamide] | – | – | – | – | chromatographic logP [1, 7]: 0.46; chromatographic logP [1, 8]: 0.72; pest or weed control at 4 ppm (Myzus persicae [2]; po): 100%; pest or weed control at 500 g/ha (Myzus persicae [3]; in Brassica rapa): 90% |
| CN(C(=O)c1cnc(C2CC(c3ccc(OC(F)(F)F)cc3)=NO2)n1C)c1cccnc1 (stereo not drawn) [Example I-1-33] | 2.28 | 2.42 | – | 90% | – |
| CN(C(=O)c1cnc(I)n1C)c1cccnc1 [VI-1-1, 2-Iodo-N,1-dimethyl-N-(pyridin-3-yl)-1H-imidazole-5-carboxamide] | – | – | – | – | chromatographic logP [1, 7]: 0.66; chromatographic logP [1, 8]: 0.97 |
| CN(C(=O)c1cnc(C2CC(c3ccccc3Cl)=NO2)n1C)c1cccnc1 (stereo not drawn) [Example I-1-9] | 1.69 | 1.95 | 100% | 100% | – |
| CN(C)C(=O)C1CC(c2ncc(C(=O)N(C)c3cccnc3)n2C)=NO1 (stereo not drawn) [Example I-1-39] | 0.78 | 1.12 | – | – | – |
| CN(C(=O)c1cnc(C2=NOC(c3ccccc3)C2)n1C)c1cccnc1 (stereo not drawn) [Example I-1-40, N,1-Dimethyl-2-(5-phenyl-4,5-dihydro-1,2-oxazol-3-yl)-N-(pyridin-3-yl)-1H-imidazole-5-carboxamide] | – | – | – | – | chromatographic logP [1, 7]: 1.86; chromatographic logP [1, 8]: 1.97; pest or weed control at 4 ppm (Myzus persicae [2]; 4 ppm, oral, after 5 days): 90%; pest or weed control at 500 g/ha (Myzus persicae [3]; [6]): 90% |
| CN(C)C(=O)C1=NOC(c2ncc(C(=O)N(C)c3cccnc3)n2C)C1 (stereo not drawn) [Example I-1-6] | 0.77 | 0.97 | 100% | 100% | – |
| CN(C(=O)c1cnc(C2CC(c3c(Cl)cccc3Cl)=NO2)n1C)c1cccnc1 (stereo not drawn) [Example I-1-15] | 1.87 | 2.10 | 100% | 100% | – |
| CC(C)C1CC(c2ncc(C(=O)N(C)c3cccnc3)n2C)=NO1 (stereo not drawn) [Example I-1-37] | 1.65 | 1.85 | – | – | – |
| CN(C(=O)c1cnc(C2CC(c3ccc(C#N)cc3)=NO2)n1C)c1cccnc1 (stereo not drawn) [Example I-1-20] | 1.42 | 1.62 | 100% | 90% | – |
| C=Cc1ncc(C(=O)N(C)c2cccnc2)n1C [VII-1-1, N,1-Dimethyl-N-(pyridin-3-yl)-2-vinyl-1H-imidazole-5-carboxamide] | – | – | – | – | chromatographic logP [1, 8]: 0.82 |
